Consider 20 molecules from US9656990B2, “Cathepsin cysteine protease inhibitors” (Merck Sharp & Dohme Corp., priority 2014, dated 2017).

Structures are written as SMILES.

For test [1], the target named is T1, human cathepsin F (Homo sapiens, UniProt Q9UBX1).
T1 sequence (Q9UBX1 271-484): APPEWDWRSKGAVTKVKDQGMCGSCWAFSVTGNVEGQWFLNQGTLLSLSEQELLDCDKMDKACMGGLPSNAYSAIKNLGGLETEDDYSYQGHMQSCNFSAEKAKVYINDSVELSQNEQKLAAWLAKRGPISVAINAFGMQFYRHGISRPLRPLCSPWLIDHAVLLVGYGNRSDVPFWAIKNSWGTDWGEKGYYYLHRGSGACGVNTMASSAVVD
The test can be described thus: Cathepsin F Assay. In kind it is biochemical. The note with it: IP from dose response curve; Z-Phe-Arg-AMC substrate, pH 5.5; read-out: hCat F (IP (nM)). On the procedure: Serial dilutions (1/3) from 500 μM down to 0.025 μM of test compounds were prepared in dimethyl sulfoxide (DMSO). Then 0.5 μL of DMSO from each dilution were added to 18.75 μL of assay buffer (MES, 50 mM (pH 5.5); EDTA, 2.5 mM; DTT, 2.5 mM and 10% DMSO) containing human cathepsin F (10 nM) in assay buffer solution. The assay solutions were mixed for 5-10 seconds on a shaker plate and incubated for 15 minutes at room temperature. Z-Phe-Arg-AMC (8 μM) in 6.25 μL of assay buffer was added to the assay solutions. Hydrolysis of the coumarin leaving group (AMC) was followed by spectrofluorometry (Exλ=360 nm; Emλ=460 nm) for 20 minutes. Percent of inhibition were calculated by fitting experimental values to standard mathematical model for dose response curve.

Test [2] addresses human cathepsin K (UniProt P43236, Y175D/V274L, species not given). The test is described as follows: Cathepsin K Assay. Conditions: IP from dose response curve; Z-Leu-Arg-AMC substrate, pH 5.5; read-out: hrbCat K (IP (nM)). In kind it is biochemical.

Consider `COc1cccc(-n2cc(-c3ccc(N4CCS(=O)(=O)CC4)cc3)c([C@@H]3CCCC[C@H]3C(=O)NC3(C#N)CC3)n2)c1` [Example 2, (1R,2R)—N-(1-Cyanocyclopropyl)-2-(4-(4-(1,1-dioxidothiomorpholino)phenyl)-1-(3-methoxyphenyl)-1H-pyrazol-3-yl)cyclohexanecarboxamide], for which the IC50 came to 494 nM in test [1] and 0.99 nM in test [2].
Taken in the same sequence, the figures for `N#CC1(NC(=O)[C@@H]2CCCC[C@H]2c2nn(-c3ccc(F)cn3)cc2-c2ccc(N3CCS(=N)(=O)CC3)cc2)CC1` [Example 5, (1R,2R)—N-(1-Cyanocyclopropyl)-2-(1-(5-fluoropyridin-2-yl)-4-(4-(1-imino-1-oxidothiomorpholino)phenyl)-1H-pyrazol-3-yl)cyclohexanecarboxamide] were 877 nM and 1.53 nM.
The like results for `CC(C)OC(=O)N1CC(c2ccc(-c3cn(-c4ccc(F)cc4)nc3[C@@H]3CCCC[C@H]3C(=O)NC3(C#N)CC3)cc2)C1` [Example 6, Isopropyl 3-(4-(3-((1R,2R)-2-((1-cyanocyclopropyl)carbamoyl)cyclohexyl)-1-(4-fluorophenyl)-1H-pyrazol-4-yl)phenyl)azetidine-1-carboxylate] were, in that order, 49 nM and 0.53 nM.
On to `Cc1ccc(-n2cc(-c3ccc(N4CCS(=O)(=O)CC4)cc3)c([C@@H]3CCCC[C@H]3C(=O)NC3(C#N)CC3)n2)nn1` [Example 7, (1R,2R)—N-(1-Cyanocyclopropyl)-2-(4-(4-(1,1-dioxidothiomorpholino)phenyl)-1-(6-methylpyridazin-3-yl)-1H-pyrazol-3-yl)cyclohexanecarboxamide], for which the IC50 in test [1] came out at 517 nM; in test [2] it was 1.54 nM.
Regarding `N#CC1(NC(=O)[C@@H]2CCCC[C@H]2c2nn(-c3cncc(Cl)c3)cc2-c2ccc(N3CCS(=O)(=O)CC3)cc2)CC1` [Example 8, (1R,2R)-2-(1-(5-Chloropyridin-3-yl)-4-(4-(1,1-dioxidothiomorpholino)phenyl)-1H-pyrazol-3-yl)-N-(1-cyanocyclopropyl)cyclohexanecarboxamide], the IC50 in test [1] amounted to 215 nM; in test [2], 0.75 nM.
Consider `CN=S1(=O)CCN(c2ccc(-c3cn(-c4ccc(F)cn4)nc3[C@@H]3CC(F)(F)CC[C@H]3C(=O)NC3(C#N)CC3)cc2)CC1` [Example 9, (1R,2R)—N-(1-Cyanocyclopropyl)-4,4-difluoro-2-(1-(5-fluoropyridin-2-yl)-4-(4-(1-(methylimino)-1-oxidothiomorpholino)phenyl)-1H-pyrazol-3-yl)cyclohexanecarboxamide], for which the IC50 in test [1] worked out at 3670 nM; in test [2], 2.56 nM.
The like results for `N#CC1(NC(=O)[C@@H]2C[C@@H](F)CC[C@H]2c2nn(-c3ccc(F)cn3)cc2-c2ccc(N3CCS(=O)(=O)CC3)cc2)CC1` [Example 10, (1R,2R,5S)—N-(1-Cyanocyclopropyl)-2-(4-(4-(1,1-dioxidothiomorpholino)phenyl)-1-(5-fluoropyridin-2-yl)-1H-pyrazol-3-yl)-5-fluorocyclohexanecarboxamide] were, in that order, 1050 nM and 0.89 nM.
Taken in the same sequence, the figures for `N#CC1(NC(=O)[C@@H]2CC(F)(F)CC[C@H]2c2nn(-c3ccc(F)cc3)c(CO)c2-c2ccc(N3CCS(=O)(=O)CC3)cc2)CC1` [Example 11, (1R,2R)—N-(1-Cyanocyclopropyl)-2-(4-(4-(1,1-dioxidothiomorpholino)phenyl)-1-(4-fluorophenyl)-5-(hydroxymethyl)-1H-pyrazol-3-yl)-5,5-difluorocyclohexanecarboxamide] were 125 nM and 1.41 nM.
The like results for `N#CC1(NC(=O)[C@@H]2CC(F)(F)CC[C@H]2c2nn3ccccc3c2-c2ccc(C(=O)N3CCOCC3)cc2)CC1` [Example 13, (1R,2R)—N-(1-cyanocyclopropyl)-5,5-difluoro-2-(3-(4-(morpholine-4-carbonyl)phenyl)pyrazolo[1,5-a]pyridin-2-yl)cyclohexanecarboxamide] were, in that order, 339 nM and 4.84 nM.
Take `N#CC1(NC(=O)[C@@H]2C[C@@H](F)CC[C@H]2c2nn(-c3ccc(F)cn3)cc2-c2ccc(N3CCS(=N)(=O)CC3)cc2)CC1` [Example 14, (1R,2R,5S)-N-(1-cyanocyclopropyl)-5-fluoro-2-(1-(5-fluoropyridin-2-yl)-4-(4-(1-imino-1-oxidothiomorpholino)phenyl)-1H-pyrazol-3-yl)cyclohexanecarboxamide]: the IC50 in test [1] is 2020 nM; in test [2] it was 2 nM.
The like results for `CN=S1(=O)CCN(c2ccc(-c3cn(-c4ccc(F)cc4)nc3[C@@H]3CC[C@H](F)C[C@H]3C(=O)NC3(C#N)CC3)cc2)CC1` [Example 15, (1R,2R,5S)-N-(1-cyanocyclopropyl)-5-fluoro-2-(1-(4-fluorophenyl)-4-(4-(1-(methylimino)-1-oxidothiomorpholino)phenyl)-1H-pyrazol-3-yl)cyclohexanecarboxamide] were, in that order, 1780 nM and 3 nM.
Regarding `N#CC1(NC(=O)[C@@H]2C[C@@H](F)CC[C@H]2c2nn(-c3ccc(F)cc3)cc2-c2ccc(N3CCS(=N)(=O)CC3)cc2)CC1` [Example 16, (1R,2R,5S)-N-(1-cyanocyclopropyl)-5-fluoro-2-(1-(4-fluorophenyl)-4-(4-(1-imino-1-oxidothiomorpholino)phenyl)-1H-pyrazol-3-yl)cyclohexanecarboxamide], the IC50 in test [1] was determined as 2600 nM; in test [2], 2.83 nM.
Taken in the same sequence, the figures for `CN=S1(=O)CCN(c2ccc(-c3cn(-c4ccc(F)cn4)nc3[C@@H]3CC[C@H](F)C[C@H]3C(=O)NC3(C#N)CC3)cc2)CC1` [Example 17, (1R,2R,5S)-N-(1-cyanocyclopropyl)-5-fluoro-2-(1-(5-fluoropyridin-2-yl)-4-(4-(1-(methylimino)-1-oxidothiomorpholino)phenyl)-1H-pyrazol-3-yl)cyclohexanecarboxamide] were 1410 nM and 3.22 nM.
Turning to `CC(C)(C)N=S1(=O)CCN(c2ccc(-c3cn(-c4ccc(F)cc4)nc3[C@@H]3CCCC[C@H]3C(=O)NC3(C#N)CC3)cc2)CC1` [Example 18, (1R,2R)-2-(4-(4-(1-(tert-butylimino)-1-oxidothiomorpholino)phenyl)-1-(4-fluorophenyl)-1H-pyrazol-3-yl)-N-(1-cyanocyclopropyl)cyclohex-anecarboxamide], the IC50 in test [1] came out at 1290 nM; in test [2], 5 nM.
Taken in the same sequence, the figures for `N#CN=S1(=O)CCN(c2ccc(-c3cn(-c4ccc(F)cc4)nc3[C@@H]3CCCC[C@H]3C(=O)NC3(C#N)CC3)cc2)CC1` [Example 19, (1R,2R)-N-(1-cyanocyclopropyl)-2-(4-(4-(1-(cyanoimino)-1-oxidothiomorpholino)phenyl)-1-(4-fluorophenyl)-1H-pyrazol-3-yl)cyclohexanecarboxamide] were 809 nM and 2.2 nM.
Taken in the same sequence, the figures for `N#CC1(NC(=O)[C@@H]2CCC(F)(F)C[C@H]2c2nn(-c3ccc(F)cn3)cc2-c2ccc(N3CCS(=N)(=O)CC3)cc2)CC1` [Example 20, (1R,2R)-N-(1-cyanocyclopropyl)-4,4-difluoro-2-(1-(5-fluoropyridin-2-yl)-4-(4-(1-imino-1-oxidothiomorpholino)phenyl)-1H-pyrazol-3-yl)cyclohexanecarboxamide] were 1820 nM and 6.81 nM.
The like results for `N#CC1(NC(=O)[C@@H]2CCCC[C@H]2c2nn3ccccc3c2-c2ccc(N3CCS(=O)(=O)CC3)cc2)CC1` [Example 21, (1R,2R)-N-(1-cyanocyclopropyl)-2-(3-(4-(1,1-dioxidothiomorpholino)phen-yl)pyrazolo[1,5-a]pyridin-2-yl)cyclohexanecarboxamide] were, in that order, 6910 nM and 9.56 nM.
For the molecule `Cc1c(-c2ccc(N3CCS(=O)(=O)CC3)cc2)c([C@@H]2CCC(F)(F)C[C@H]2C(=O)NC2(C#N)CC2)nn1-c1ccc(F)cc1` [Example 26, (1R,2R)-N-(1-cyanocyclopropyl)-2-(4-(4-(1,1-dioxidothiomorpholino)phen-yl)-1-(4-fluorophenyl)-5-methyl-1H-pyrazol-3-yl)-5,5-difluorocyclohexanecarbox-amide], the IC50 was determined as 168 nM in test [1] and 0.67 nM in test [2].
As for `Cc1c(-c2ccc(N3CCS(=O)(=O)CC3)cc2)c([C@@H]2CCC(F)(F)C[C@H]2C(=O)NC2(C#N)CC2)nn1-c1ccc(F)cn1` [Example 27, (1R,2R)-N-(1-cyanocyclopropyl)-2-(4-(4-(1,1-dioxidothiomorpholino)phen-yl)-1-(5-fluoropyridin-2-yl)-5-methyl-1H-pyrazol-3-yl)-5,5-difluorocyclohexanecarbox-amide], the IC50 in test [1] was 170 nM; in test [2], 1.28 nM.
As for `N#CC1(NC(=O)[C@@H]2CC(F)(F)CC[C@H]2c2nn3ccccc3c2-c2ccc(N3CCS(=O)(=O)CC3)cc2)CC1` [Example 28, (1R,2R)-N-(1-cyanocyclopropyl)-2-(3-(4-(1,1-dioxidothiomorpholino)phen-yl)pyrazolo[1,5-a]pyridin-2-yl)-5,5-difluorocyclohexanecarbox-amide], the values for the IC50 in test [1] and in test [2] were 363 nM and 1.94 nM, respectively.
